Reference: patent publication US20090023714A1, “COMBINED PREPARATION OF A THIAZIDE DIURETIC AND A LOOP DIURETIC” (HEXAL AG, priority 2005, published 2009)
Entries after “also recorded” stand apart in the source; their conditions may differ.

Experiments:
healthy volunteers [1] = assay: Diuretic effects on urinary excretion of Na+, K+, Mg2+ and Ca2+ in healthy volunteers (monotherapy and combinations); type: in vivo, human; conditions: for Na+ excretion during the first 3 hrs, monotherapy: 10 mg TORA, 25 mg HCT, 50 mg TA; for total K+ excretion, monotherapy: usual doses, 0-24 hrs and sub-periods, FIG. 2b
Protocol: (§1) The ethically approved trial was performed on 12 healthy volunteers (28-48years in age, 6 males, 6 females), who had given their written informed consent to the study. Prior to administration of a drug, the participants underwent a clinical check-up. The participants were kept on a standard diet, receiving a defined fluid (1.5 l/day) and salt intake (6 g NaCl; 100 mmol Na^+/day) three days before and throughout the study.
From that point of time, urine was collected following drug administration in 2 hour intervals until the 6th hour and then from the 6th to 9th hour, from the 9th to 12th hour and from the 12th to […]. An aliquot of the defined volume of the respective collection period was frozen until analyzed for Na^+, K^+, Cl^−, Ca^2+ Mg^2+ and creatinine using a “MODULAR” Analyzer (Roche Comp., Switzerland).
(§2) All data are expressed as mean values (±SEM). The diuretic-induced “net excretion” is defined as the difference between total excretion and control excretion (“baseline”) obtained for the respective period prior to treatment. The effect of diuretic monotherapy is compared with the combined treatment using ANOVA.

healthy volunteers [2] = assay: Dose-response studies of natriuretic effect in healthy volunteers; type: in vivo, human; conditions: for range of linear dose-responsiveness of natriuretic effect / dose at which the maximum natriuretic effect is reached: FIG. 1; for dose at which the maximum natriuretic effect is reached: net Na+ excretion for the duration of action, oral; for duration of action (time until baseline excretion is reached again): oral single dose
Protocol: as §1
In accordance with earlier studies (35), urine was collected before the treatment period, i.e., from 24 hrs to 12 hrs and from 12 hrs to 0 hrs prior to oral drug administration (8 a.m.). From that point of time, urine was collected following drug administration in 2 hour intervals until the 6th hour and then from the 6th to 9th hour, from the 9th to 12th hour and from the 12th to […]. An aliquot of the defined volume of the respective collection period was frozen until analyzed for Na^+, K^+, Cl^−, Ca^2+ Mg^2+ and creatinine using a “MODULAR” Analyzer (Roche Comp., Switzerland).
as §2

For `NS(=O)(=O)c1cc2c(cc1Cl)NCNS2(=O)=O` [HCT, hydrochlorothiazide], the “K+ excretion correlated with Na+ excretion (K+/Na+ ratio), 0-12 hrs” value (healthy volunteers [1]; 0-12 hrs, HCT alone versus HCT with 5 mg TORA, p<0.01) was 0.40, the “K+ excretion correlated with Na+ excretion (K+/Na+ ratio), 0-24 hrs” value (healthy volunteers [1]; 0-24 hrs, HCT alone versus HCT with 5 mg TORA, p<0.01) was 0.43 and the “Na+ excretion during the first 3 hrs, monotherapy” value (healthy volunteers [1]; FIG. 2a) was “higher Na^+ excretion than TA only during the first 3 hrs”. The “K+/Na+ excretion ratio within the first three hours, monotherapy” value (healthy volunteers [1]; FIG. 2c) was “nearly triple of that of the loop diuretic”, the “total K+ excretion, monotherapy” value (healthy volunteers [1]) was “higher than that following administration of the loop diuretic” and the “range of linear dose-responsiveness of natriuretic effect” value (shortened to “range”) (healthy volunteers [2]) was “narrow range of almost linear dose-responsiveness”. The “cumulative Na+ excretion induced by 25 mg compared with 50 mg” value (healthy volunteers [2]; during 12 hrs (time until baseline excretion is reached again)) was “not significantly different”, the “dose at which the maximum natriuretic effect is reached” value (healthy volunteers [2]) was 25 mg and the “duration of action (time until baseline excretion is reached again)” value (healthy volunteers [2]) was 12 h.
`Nc1nc(N)c2nc(-c3ccccc3)c(N)nc2n1` [TA, triamterene] was tested, and the “total K+ excretion, monotherapy” value (healthy volunteers [1]) was “less K^+ loss than HCT or TORA only for the 0-3 hrs period; also recorded: not superior to the loop diuretic”, the “range” value (healthy volunteers [2]) was “narrow range of almost linear dose-responsiveness” and the “dose at which the maximum natriuretic effect is reached” value (healthy volunteers [2]) was 50 mg.
`Cc1cccc(Nc2ccncc2S(=O)(=O)NC(=O)NC(C)C)c1` [TORA, torasemide] was tested, and the “Na+ excretion during the 6-12 hrs and 12-24 hrs periods (rebound)” value (healthy volunteers [1]; 10 mg TORA monotherapy, FIG. 2a) was “dropped below levels prior to drug administration”, the “Na+ excretion during the first 3 hrs, monotherapy” value (healthy volunteers [1]; FIG. 2a) was “by far in the highest increase of Na excretion” and the “K+/Na+ excretion ratio 6-24 hrs, monotherapy” value (healthy volunteers [1]; after the duration of action, Na+ excretion below baseline, FIG. 2c) was “highest only after the duration of action of the loop diuretic”. The “Mg2+ excretion, monotherapy” value (healthy volunteers [1]; loop diuretic versus thiazide, FIG. 3) was “less magnesiuretic than the thiazide”, the “Ca2+ excretion in relation to Na+ excretion, monotherapy” value (healthy volunteers [1]; loop diuretic versus thiazide, FIG. 2d) was “higher for the loop diuretic than for the thiazide” and the “range” value (healthy volunteers [2]) was “broader range of linear dose-responsiveness”. The “duration of action (time until baseline excretion is reached again)” value (healthy volunteers [2]) was 6 h.
